Assay results: ChEMBL document CHEMBL2440076, “New triarylpyrazoles as broad-spectrum anticancer agents: design, synthesis, and biological evaluation” (Eur J Med Chem, 2013)

What was measured:
Assay type in all cases: functional
[1] = tested on: T47D; test: Growth inhibition of human T47D cells assessed as cell growth at 5X10'-9 M after 48 hrs by sulforhodamine B assay; details: read-out: Activity
[2] = tested on: PC-3; test: Growth inhibition of human PC3 cells assessed as cell growth at 5X10'-6 M after 48 hrs by sulforhodamine B assay; details: PC-3, 48 h, read-out: Activity
[3] = tested on: MDA-MB-468; test: Growth inhibition of human MDA-MB-468 cells assessed as cell growth at 5X10'-8 M after 48 hrs by sulforhodamine B assay; details: MDA-MB-468, 48 h, read-out: Activity
[4] = tested on: HCT-116; test: Growth inhibition of human HCT116 cells assessed as cell growth at 5X10'-8 M after 48 hrs by sulforhodamine B assay; details: HCT-116, 48 h, read-out: Activity
[5] = tested on: SK-MEL-28; test: Growth inhibition of human SK-MEL-28 cells assessed as cell growth at 5X10'-8 M after 48 hrs by sulforhodamine B assay; details: SK-MEL-28, 48 h, read-out: Activity
[6] = tested on: T47D; test: Growth inhibition of human T47D cells assessed as cell growth at 5X10'-5 M after 48 hrs by sulforhodamine B assay; details: read-out: Activity
[7] = tested on: NCI-H226; test: Growth inhibition of human NCI-H226 cells assessed as cell growth at 5X10'-7 M after 48 hrs by sulforhodamine B assay; details: NCI-H226, 48 h, read-out: Activity
[8] = tested on: OVCAR-8; test: Growth inhibition of human OVCAR8 cells assessed as cell growth at 5X10'-6 M after 48 hrs by sulforhodamine B assay; details: OVCAR-8, 48 h, read-out: Activity
[9] = tested on: NCI-H322M; test: Growth inhibition of human NCI-H322M cells assessed as cell growth at 5X10'-5 M after 48 hrs by sulforhodamine B assay; details: read-out: Activity
[10] = tested on: SNB-75; test: Growth inhibition of human SNB75 cells assessed as cell growth at 5X10'-7 M after 48 hrs by sulforhodamine B assay; details: SNB-75, 48 h, read-out: Activity
[11] = tested on: NCI-H460; test: Growth inhibition of human NCI-H460 cells assessed as cell growth at 5X10'-7 M after 48 hrs by sulforhodamine B assay; details: NCI-H460, 48 h, read-out: Activity
[12] = tested on: SR; test: Growth inhibition of human SR cells assessed as cell growth at 5X10'-7 M after 48 hrs by sulforhodamine B assay; details: read-out: Activity
[13] = tested on: U-251; test: Growth inhibition of human U251 cells assessed as cell growth at 5X10'-6 M after 48 hrs by sulforhodamine B assay; details: U-251, 48 h, read-out: Activity
[14] = tested on: TK-10; test: Growth inhibition of human TK10 cells assessed as cell growth at 5X10'-6 M after 48 hrs by sulforhodamine B assay; details: TK-10, 48 h, read-out: Activity
[15] = tested on: SF-295; test: Growth inhibition of human SF295 cells assessed as cell growth at 5X10'-7 M after 48 hrs by sulforhodamine B assay; details: SF-295, 48 h, read-out: Activity
[16] = tested on: NCI-H460; test: Growth inhibition of human NCI-H460 cells assessed as cell growth at 5X10'-5 M after 48 hrs by sulforhodamine B assay; details: NCI-H460, 48 h, read-out: Activity
[17] = tested on: 786-0; test: Growth inhibition of human 786-0 cells assessed as cell growth at 5X10'-8 M after 48 hrs by sulforhodamine B assay; details: 786-0, 48 h, read-out: Activity
[18] = tested on: LOX IMVI; test: Growth inhibition of human LOXIMVI cells assessed as cell growth at 5X10'-6 M after 48 hrs by sulforhodamine B assay; details: read-out: Activity
[19] = tested on: SNB-19; test: Growth inhibition of human SNB19 cells assessed as cell growth at 5X10'-7 M after 48 hrs by sulforhodamine B assay; details: SNB-19, 48 h, read-out: Activity
[20] = tested on: IGROV-1; test: Growth inhibition of human IGROV1 cells assessed as cell growth at 5X10'-8 M after 48 hrs by sulforhodamine B assay; details: IGROV-1, 48 h, read-out: Activity
[21] = tested on: T47D; test: Growth inhibition of human T47D cells assessed as cell growth at 5X10'-7 M after 48 hrs by sulforhodamine B assay; details: read-out: Activity
[22] = tested on: SK-MEL-2; test: Growth inhibition of human SK-MEL-2 cells assessed as cell growth at 5X10'-5 M after 48 hrs by sulforhodamine B assay; details: SK-MEL-2, 48 h, read-out: Activity
[23] = tested on: TK-10; test: Growth inhibition of human TK10 cells assessed as cell growth at 5X10'-7 M after 48 hrs by sulforhodamine B assay; details: TK-10, 48 h, read-out: Activity
[24] = tested on: ACHN; test: Growth inhibition of human ACHN cells assessed as cell growth at 5X10'-7 M after 48 hrs by sulforhodamine B assay; details: read-out: Activity
[25] = tested on: HOP-62; test: Growth inhibition of human HOP62 cells assessed as cell growth at 5X10'-9 M after 48 hrs by sulforhodamine B assay; details: HOP-62, 48 h, read-out: Activity
[26] = tested on: A498; test: Growth inhibition of human A498 cells assessed as cell growth at 5X10'-5 M after 48 hrs by sulforhodamine B assay; details: A498, 48 h, read-out: Activity
[27] = tested on: MDA-MB-231; test: Growth inhibition of human MDA-MB-231 cells assessed as cell growth at 5X10'-5 M after 48 hrs by sulforhodamine B assay; details: MDA-MB-231, 48 h, read-out: Activity
[28] = tested on: CCRF-CEM; test: Growth inhibition of human CCRF-CEM cells assessed as cell growth at 5X10'-7 M after 48 hrs by sulforhodamine B assay; details: read-out: Activity
[29] = tested on: COLO 205; test: Growth inhibition of human COLO205 cells assessed as cell growth at 5X10'-9 M after 48 hrs by sulforhodamine B assay; details: COLO 205, 48 h, read-out: Activity
[30] = tested on: A549; test: Growth inhibition of human A549/ATCC cells assessed as cell growth at 5X10'-7 M after 48 hrs by sulforhodamine B assay; details: A549, 48 h, read-out: Activity
[31] = tested on: RXF 393; test: Growth inhibition of human RXF393 cells assessed as cell growth at 5X10'-5 M after 48 hrs by sulforhodamine B assay; details: RXF 393, 48 h, read-out: Activity
[32] = tested on: NCI-H522; test: Growth inhibition of human NCI-H522 cells assessed as cell growth at 5X10'-5 M after 48 hrs by sulforhodamine B assay; details: NCI-H522, 48 h, read-out: Activity
[33] = tested on: NCI-H23; test: Growth inhibition of human NCI-H23 cells assessed as cell growth at 5X10'-8 M after 48 hrs by sulforhodamine B assay; details: NCI-H23, 48 h, read-out: Activity
[34] = tested on: RPMI-8226; test: Growth inhibition of human RPMI8226 cells assessed as cell growth at 5X10'-8 M after 48 hrs by sulforhodamine B assay; details: RPMI-8226, 48 h, read-out: Activity
[35] = tested on: HOP-62; test: Growth inhibition of human HOP62 cells assessed as cell growth at 5X10'-6 M after 48 hrs by sulforhodamine B assay; details: HOP-62, 48 h, read-out: Activity
[36] = Growth inhibition of human HCC2998 cells assessed as cell growth at 5X10'-7 M after 48 hrs by sulforhodamine B assay; details: HCC 2998, 48 h, read-out: Activity

`COc1cc(-c2nn(-c3cccc(NC(=O)Nc4cccc(C(F)(F)F)c4)c3)cc2-c2ccncc2)ccc1Cl` showed a growth at 0.005 µM [1] of 95%, a growth at 5 µM [2] of -19% and a growth at 0.05 µM [3] of 92%. The growth at 0.05 µM [4] was 99%, the growth at 0.05 µM [5] was 100% and the growth at 50 µM [6] was 1%. The growth at 0.5 µM [7] was 84%, the growth at 5 µM [8] was -24% and the growth at 50 µM [9] was -14%. For the same compound, the growth at 0.5 µM [10] was 81%, the growth at 0.5 µM [11] was 64% and the growth at 0.5 µM [12] was 75%. For the same compound, the growth at 5 µM [13] was -86%, the growth at 5 µM [14] was 10% and the growth at 0.5 µM [15] was 39%. The growth at 50 µM [16] was -35%, the growth at 0.05 µM [17] was 95% and the growth at 5 µM [18] was -75%. For the same compound, the growth at 0.5 µM [19] was 74%, the growth at 0.05 µM [20] was 96% and the growth at 0.5 µM [21] was 85%. It also gave a growth at 50 µM [22] of -85%, a growth at 0.5 µM [23] of 79% and a growth at 0.5 µM [24] of 58%. For the same compound, the growth at 0.005 µM [25] was 93%, the growth at 50 µM [26] was -20% and the growth at 50 µM [27] was -56%. For the same compound, the growth at 0.5 µM [28] was 69%, the growth at 0.005 µM [29] was 98% and the growth at 0.5 µM [30] was 62%. For the same compound, the growth at 50 µM [31] was -53%, the growth at 50 µM [32] was -41% and the growth at 0.05 µM [33] was 95%. It also gave a growth at 0.05 µM [34] of 97%, a growth at 5 µM [35] of -9% and a growth at 0.5 µM [36] of 94%.

With `COc1cc(-c2nn(-c3cccc(NC(=O)Nc4cc(C(F)(F)F)cc(C(F)(F)F)c4)c3)cc2-c2ccncc2)ccc1Cl` the growth at 0.005 µM [1] was 101%, the growth at 5 µM [2] was -20% and the growth at 0.05 µM [3] was 85%. For the same compound, the growth at 0.05 µM [4] was 106%, the growth at 0.05 µM [5] was 97% and the growth at 50 µM [6] was 5%. It also gave a growth at 0.5 µM [7] of 83%, a growth at 5 µM [8] of -6% and a growth at 50 µM [9] of -58%. For the same compound, the growth at 0.5 µM [10] was 81%, the growth at 0.5 µM [11] was 55% and the growth at 0.5 µM [12] was 80%. The growth at 5 µM [13] was -77%, the growth at 5 µM [14] was -34% and the growth at 0.5 µM [15] was 45%. The growth at 50 µM [16] was -59%, the growth at 0.05 µM [17] was 102% and the growth at 5 µM [18] was -90%. The growth at 0.5 µM [19] was 61%, the growth at 0.05 µM [20] was 105% and the growth at 0.5 µM [21] was 89%. It also gave a growth at 50 µM [22] of -84%, a growth at 0.5 µM [23] of 78% and a growth at 0.5 µM [24] of 50%. It also gave a growth at 0.005 µM [25] of 100%, a growth at 50 µM [26] of -89% and a growth at 50 µM [27] of -85%. For the same compound, the growth at 0.5 µM [28] was 50%, the growth at 0.005 µM [29] was 107% and the growth at 0.5 µM [30] was 52%. The growth at 50 µM [31] was -65%, the growth at 50 µM [32] was -65% and the growth at 0.05 µM [33] was 100%. It also gave a growth at 0.05 µM [34] of 95%, a growth at 5 µM [35] of -92% and a growth at 0.5 µM [36] of 95%.

For `COc1cc(-c2nn(-c3cccc(NC(=O)c4cccc(C(F)(F)F)c4)c3)cc2-c2ccncc2)ccc1Cl`, the growth at 0.005 µM [1] was 92%, the growth at 5 µM [2] was 17% and the growth at 0.05 µM [3] was 90%. The growth at 0.05 µM [4] was 96%, the growth at 0.05 µM [5] was 102% and the growth at 50 µM [6] was 21%. The growth at 0.5 µM [7] was 84%, the growth at 5 µM [8] was 23% and the growth at 50 µM [9] was 46%. The growth at 0.5 µM [10] was 79%, the growth at 0.5 µM [11] was 90% and the growth at 0.5 µM [12] was 65%. The growth at 5 µM [13] was 14%, the growth at 5 µM [14] was 36% and the growth at 0.5 µM [15] was 83%. For the same compound, the growth at 50 µM [16] was -10%, the growth at 0.05 µM [17] was 98% and the growth at 5 µM [18] was 8%. For the same compound, the growth at 0.5 µM [19] was 100%, the growth at 0.05 µM [20] was 95% and the growth at 0.5 µM [21] was 84%. It also gave a growth at 50 µM [22] of 6%, a growth at 0.5 µM [23] of 108% and a growth at 0.5 µM [24] of 81%. The growth at 0.005 µM [25] was 95%, the growth at 50 µM [26] was -28% and the growth at 50 µM [27] was -21%. For the same compound, the growth at 0.5 µM [28] was 88%, the growth at 0.005 µM [29] was 108% and the growth at 0.5 µM [30] was 91%. The growth at 50 µM [31] was -2%, the growth at 50 µM [32] was -24% and the growth at 0.05 µM [33] was 90%. For the same compound, the growth at 0.05 µM [34] was 98%, the growth at 5 µM [35] was 47% and the growth at 0.5 µM [36] was 105%.
